Assay results published in PubChem BioAssay (NCI).
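Five concentrations, 48 hours, 96-well plates. Definition used: TGI = concentration required for complete inhibition of growth.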

Tests used:
Assay in all cases: growth of human tumour cells (NCI), 48 h
NCI-H522 lung = system: NCI-H522 lung
SW-620 colon = system: SW-620 colon
COLO 205 colon = system: COLO 205 colon
HT29 colon = system: HT29 colon
MDA-MB-435 = system: MDA-MB-435
A549 NSCLC = system: A549 NSCLC
SF-539 CNS = system: SF-539 CNS
CCRF-CEM leukemia = system: CCRF-CEM leukemia
SK-MEL-2 melanoma = system: SK-MEL-2 melanoma
OVCAR-5 ovarian = system: OVCAR-5 ovarian
RXF 393 renal = system: RXF 393 renal
NCI-H23 lung = system: NCI-H23 lung
U251 CNS = system: U251 CNS
ACHN renal = system: ACHN renal
SN12C renal = system: SN12C renal
CAKI-1 renal = system: CAKI-1 renal
DU-145 prostate = system: DU-145 prostate
MDA-MB-231 breast = system: MDA-MB-231 breast
MDA-N = system: MDA-N
T-47D breast = system: T-47D breast
K-562 leukemia = system: K-562 leukemia
A498 renal = system: A498 renal
NCI-H226 lung = system: NCI-H226 lung
SK-OV-3 ovarian = system: SK-OV-3 ovarian
786-0 renal = system: 786-0 renal
MCF7 breast = system: MCF7 breast
BT-549 breast = system: BT-549 breast
SNB-75 CNS = system: SNB-75 CNS
PC-3 prostate = system: PC-3 prostate
NCI/ADR-RES ovarian = system: NCI/ADR-RES ovarian
SF-268 CNS = system: SF-268 CNS
UACC-257 melanoma = system: UACC-257 melanoma
UACC-62 melanoma = system: UACC-62 melanoma
NCI-H460 lung = system: NCI-H460 lung
SF-295 CNS = system: SF-295 CNS
KM12 colon = system: KM12 colon
OVCAR-4 ovarian = system: OVCAR-4 ovarian
RPMI-8226 leukemia = system: RPMI-8226 leukemia
UO-31 renal = system: UO-31 renal
HL-60(TB) leukemia = system: HL-60(TB) leukemia
MOLT-4 leukemia = system: MOLT-4 leukemia
SR leukemia = system: SR leukemia
M14 melanoma = system: M14 melanoma
SK-MEL-28 melanoma = system: SK-MEL-28 melanoma
EKVX NSCLC = system: EKVX NSCLC
LOX IMVI melanoma = system: LOX IMVI melanoma
SK-MEL-5 melanoma = system: SK-MEL-5 melanoma
TK-10 renal = system: TK-10 renal
OVCAR-3 ovarian = system: OVCAR-3 ovarian
MALME-3M melanoma = system: MALME-3M melanoma
HCT-15 colon = system: HCT-15 colon
HOP-92 NSCLC = system: HOP-92 NSCLC
OVCAR-8 ovarian = system: OVCAR-8 ovarian
HCC-2998 colon = system: HCC-2998 colon
HCT-116 colon = system: HCT-116 colon
HS 578T breast = system: HS 578T breast
SNB-19 CNS = system: SNB-19 CNS
IGROV1 ovarian = system: IGROV1 ovarian
HOP-62 NSCLC = system: HOP-62 NSCLC

Measured: TGI

c1ccc(NNN2NC(c3ccccc3)C2c2ccccc2)cc1 (stereo not given)
not listed: IGROV1 ovarian | HOP-62 NSCLC
> 100 µM: all other assays above

COc1ccc(/C=C2/N=C(N/N=C\C(O)C(O)C(O)C(O)CO)NC2=O)cc1 (stereo not given)
not listed: UACC-62 melanoma
> 100 µM: all other assays above
